In PubChem BioAssay (NCI):
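48-hour exposure; five concentrations; linearly interpolated endpoints. GI50 marks 50% less growth. TGI is the concentration that stops growth completely.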

Tests used:
Experiment in all cases: DTP human tumour cell line panel, 48 h; in the data active = GI50 below about 0.43 µM; inactive = the rest
HS 578T breast = tested on: HS 578T breast
EKVX NSCLC = tested on: EKVX NSCLC
MALME-3M melanoma = tested on: MALME-3M melanoma
IGROV1 ovarian = tested on: IGROV1 ovarian
OVCAR-3 ovarian = tested on: OVCAR-3 ovarian
SF-295 CNS = tested on: SF-295 CNS
LOX IMVI melanoma = tested on: LOX IMVI melanoma
SW-620 colon = tested on: SW-620 colon
SK-MEL-5 melanoma = tested on: SK-MEL-5 melanoma
UACC-62 melanoma = tested on: UACC-62 melanoma
SF-539 CNS = tested on: SF-539 CNS
HT29 colon = tested on: HT29 colon
PC-3 prostate = tested on: PC-3 prostate
NCI-H522 lung = tested on: NCI-H522 lung
OVCAR-4 ovarian = tested on: OVCAR-4 ovarian
HL-60(TB) leukemia = tested on: HL-60(TB) leukemia
U251 CNS = tested on: U251 CNS
DU-145 prostate = tested on: DU-145 prostate
CCRF-CEM leukemia = tested on: CCRF-CEM leukemia
SK-MEL-28 melanoma = tested on: SK-MEL-28 melanoma
T-47D breast = tested on: T-47D breast
KM12 colon = tested on: KM12 colon
NCI-H460 lung = tested on: NCI-H460 lung
MDA-MB-435 = tested on: MDA-MB-435
BT-549 breast = tested on: BT-549 breast
CAKI-1 renal = tested on: CAKI-1 renal
SNB-75 CNS = tested on: SNB-75 CNS
MOLT-4 leukemia = tested on: MOLT-4 leukemia
M14 melanoma = tested on: M14 melanoma
MCF7 breast = tested on: MCF7 breast
NCI-H226 lung = tested on: NCI-H226 lung
SF-268 CNS = tested on: SF-268 CNS
A549 NSCLC = tested on: A549 NSCLC
HCC-2998 colon = tested on: HCC-2998 colon
HOP-62 NSCLC = tested on: HOP-62 NSCLC
UACC-257 melanoma = tested on: UACC-257 melanoma
HOP-92 NSCLC = tested on: HOP-92 NSCLC
K-562 leukemia = tested on: K-562 leukemia
COLO 205 colon = tested on: COLO 205 colon
SR leukemia = tested on: SR leukemia
TK-10 renal = tested on: TK-10 renal
ACHN renal = tested on: ACHN renal
A498 renal = tested on: A498 renal
HCT-116 colon = tested on: HCT-116 colon
SK-MEL-2 melanoma = tested on: SK-MEL-2 melanoma
RXF 393 renal = tested on: RXF 393 renal
786-0 renal = tested on: 786-0 renal
HCT-15 colon = tested on: HCT-15 colon
SN12C renal = tested on: SN12C renal
MDA-MB-231 breast = tested on: MDA-MB-231 breast
RPMI-8226 leukemia = tested on: RPMI-8226 leukemia
UO-31 renal = tested on: UO-31 renal
SNB-19 CNS = tested on: SNB-19 CNS
OVCAR-5 ovarian = tested on: OVCAR-5 ovarian
SK-OV-3 ovarian = tested on: SK-OV-3 ovarian
NCI/ADR-RES ovarian = tested on: NCI/ADR-RES ovarian
NCI-H23 lung = tested on: NCI-H23 lung

CC(C)OC(=O)c1cc(NS(=O)(=O)c2ccc3ccccc3c2)cc(C(=O)OC(C)C)c1
45.3 µM: TGI (MCF7 breast) | TGI (RPMI-8226 leukemia)
79.7 µM: TGI (SF-295 CNS)
76.5 µM: TGI (MDA-MB-231 breast)
76.2 µM: TGI (SR leukemia)
58.5 µM: TGI (T-47D breast)
45.9 µM: TGI (NCI-H522 lung)
63.4 µM: TGI (MOLT-4 leukemia)
38.8 µM: TGI (NCI-H460 lung)
inactive: GI50 (HS 578T breast) 20.7 µM | GI50 (EKVX NSCLC) 25 µM | GI50 (MALME-3M melanoma) 32.7 µM | GI50 (IGROV1 ovarian) 35.2 µM | GI50 (OVCAR-3 ovarian) 24 µM | GI50 (SF-295 CNS) 22.2 µM | GI50 (LOX IMVI melanoma) 28.5 µM | GI50 (SW-620 colon) 30.3 µM | GI50 (SK-MEL-5 melanoma) 16 µM | GI50 (UACC-62 melanoma) 17 µM | GI50 (SF-539 CNS) 24.6 µM | GI50 (HT29 colon) 34.1 µM | GI50 (PC-3 prostate) 23.8 µM | GI50 (NCI-H522 lung) 18.3 µM | GI50 (OVCAR-4 ovarian) 22 µM | GI50 (HL-60(TB) leukemia) 24.2 µM | GI50 (U251 CNS) 31.7 µM | GI50 (DU-145 prostate) 28.8 µM | GI50 (CCRF-CEM leukemia) 22.5 µM | GI50 (SK-MEL-28 melanoma) 24.6 µM | GI50 (T-47D breast) 17.6 µM | GI50 (KM12 colon) 32.3 µM | GI50 (NCI-H460 lung) 13.4 µM | GI50 (MDA-MB-435) 23.1 µM | GI50 (BT-549 breast) 17.2 µM | GI50 (CAKI-1 renal) 36.4 µM | GI50 (SNB-75 CNS) 23.9 µM | GI50 (MOLT-4 leukemia) 22 µM | GI50 (M14 melanoma) 17.6 µM | GI50 (MCF7 breast) 12.3 µM | GI50 (NCI-H226 lung) 26.8 µM | GI50 (SF-268 CNS) 15.8 µM | GI50 (A549 NSCLC) 27.1 µM | GI50 (HCC-2998 colon) 17.3 µM | GI50 (HOP-62 NSCLC) 33.1 µM | GI50 (UACC-257 melanoma) 30.5 µM | GI50 (HOP-92 NSCLC) 24.9 µM | GI50 (K-562 leukemia) 29.6 µM | GI50 (COLO 205 colon) 16 µM | GI50 (SR leukemia) 24.5 µM | GI50 (TK-10 renal) 45.2 µM | GI50 (ACHN renal) 33.1 µM | GI50 (A498 renal) 17.2 µM | GI50 (HCT-116 colon) 24.2 µM | GI50 (SK-MEL-2 melanoma) 26.2 µM | GI50 (RXF 393 renal) 20.9 µM | GI50 (786-0 renal) 30.9 µM | GI50 (HCT-15 colon) 28.4 µM | GI50 (SN12C renal) 29.9 µM | GI50 (MDA-MB-231 breast) 21.4 µM | GI50 (RPMI-8226 leukemia) 15.6 µM | GI50 (UO-31 renal) 26.4 µM | GI50 (SNB-19 CNS) 33.5 µM | GI50 (OVCAR-5 ovarian) 18.3 µM | GI50 (SK-OV-3 ovarian) 32.3 µM | GI50 (NCI/ADR-RES ovarian) 16.3 µM | GI50 (NCI-H23 lung) 21.9 µM
> 100 µM: TGI (MALME-3M melanoma) | TGI (IGROV1 ovarian) | TGI (LOX IMVI melanoma) | TGI (SW-620 colon) | TGI (HT29 colon) | TGI (U251 CNS) | TGI (DU-145 prostate) | TGI (KM12 colon) | TGI (CAKI-1 renal) | TGI (NCI-H226 lung) | TGI (HOP-62 NSCLC) | TGI (UACC-257 melanoma) | TGI (K-562 leukemia) | TGI (TK-10 renal) | TGI (ACHN renal) | TGI (HCT-116 colon) | TGI (RXF 393 renal) | TGI (786-0 renal) | TGI (HCT-15 colon) | TGI (SN12C renal) | TGI (UO-31 renal) | TGI (SNB-19 CNS) | TGI (SK-OV-3 ovarian)
57.3 µM: TGI (SF-268 CNS)
43.2 µM: TGI (BT-549 breast)
73.2 µM: TGI (SK-MEL-28 melanoma) | TGI (MDA-MB-435)
48.6 µM: TGI (UACC-62 melanoma)
88.9 µM: TGI (CCRF-CEM leukemia)
49.8 µM: TGI (HS 578T breast)
73.9 µM: TGI (NCI-H23 lung)
47.2 µM: TGI (HCC-2998 colon)
34.3 µM: TGI (COLO 205 colon)
54.9 µM: TGI (A498 renal)
66.2 µM: TGI (SNB-75 CNS)
94.7 µM: TGI (OVCAR-3 ovarian)
73.6 µM: TGI (SK-MEL-2 melanoma)
89.2 µM: TGI (EKVX NSCLC)
93.5 µM: TGI (A549 NSCLC)
82.3 µM: TGI (OVCAR-4 ovarian)
61.3 µM: TGI (SF-539 CNS)
91.8 µM: TGI (PC-3 prostate)
56.6 µM: TGI (NCI/ADR-RES ovarian)
31.8 µM: TGI (SK-MEL-5 melanoma)
65.8 µM: TGI (HL-60(TB) leukemia)
46.8 µM: TGI (M14 melanoma)
48.8 µM: TGI (OVCAR-5 ovarian)
64.9 µM: TGI (HOP-92 NSCLC)
